Legend:
[1] = test system: Plasmodium falciparum; assay: Hit confirmation in dose-response curve in NF54 nanoGlo assay, at 72h; type: functional, organism-based, Erythrocyte; design: timepoint 72 hour; conditions: Plasmodium falciparum, NF54, Erythrocyte, 72 h
[2] = test system: Plasmodium falciparum; assay: Hit confirmation in dose-response curve in NF54 pLDH assay, at 72h; type: functional, organism-based; design: timepoint 72 hour; conditions: NF54, Erythrocyte
[3] = test system: Plasmodium falciparum; assay: Hit confirmation in dose-response curve in Dd2 pLDH assay, at 72h; type: functional, organism-based; design: timepoint 72 hour; conditions: Dd2, Erythrocyte
[4] = test system: Plasmodium falciparum; assay: Hit confirmation in dose-response curve in NF54 nanoGlo assay, at 12h; type: functional, organism-based, Erythrocyte; design: timepoint 12 hour; conditions: Plasmodium falciparum, NF54, Erythrocyte, 12 h
[5] = Hit confirmation in dose-response curve in HepG2 cytotoxicity assay, at 72h; type: toxicity, cell-based; design: timepoint 72 hour; conditions: human, HepG2 cells

Row | Structure (SMILES) | IC50 [1] | IC50 [2] | IC50 [3] | IC50 [4] | IC50 at 72 h [5]
1 | CCOc1cc(CNc2cccc3ccccc23)cc(Br)c1OCC(=O)NC(C)(C)C | > 10 µM | > 10 µM | > 10 µM | > 10 µM | > 10 µM
2 | COc1cccc(-c2nn(-c3nc(-c4ccccc4)cc(C(F)(F)F)n3)c(-c3cccc(OC)c3)c2Cl)c1 | 6.17 µM | 8.32 µM | > 10 µM | > 10 µM | > 10 µM
3 | Cc1cc(=O)c(OCC(=O)N2CCN([C@@H](c3ccccc3)c3ccc(Cl)cc3)CC2)c[nH]1 | 1.86 µM | 5.01 µM | 3.47 µM | > 10 µM | > 10 µM
4 | c1ccc(CC2=NCCc3ccccc32)cc1 | 1.29 µM | 3.02 µM | 1.41 µM | > 10 µM | > 10 µM
5 | N#Cc1c(NC(=O)Nc2cn3ccccc3c2C#N)cn2ccccc12 | 0.302 µM | 1.35 µM | 1 µM | > 10 µM | > 10 µM
6 | c1ccc2c[n+](Cc3ccc4ccccc4n3)ccc2c1 | 1.95 µM | 2.57 µM | 2.45 µM | > 10 µM | > 10 µM
7 | c1coc(CNc2nc(Nc3cccc4ccccc34)nc3ccccc23)c1 | 2.82 µM | 7.94 µM | 5.01 µM | 5.75 µM | > 10 µM
8 | CCNC(=O)c1csc(COc2ccc3c(c2)[C@H](c2ccc(C)cc2)N(C(=O)CC(C)C)CC3)n1 | 3.55 µM | 7.76 µM | 4.47 µM | 9.77 µM | > 10 µM
9 | Cc1oc(-c2ccn[nH]2)cc1S(=O)(=O)Nc1cccc(Cl)c1 | 1.48 µM | 7.76 µM | > 10 µM | 0.933 µM | > 10 µM
10 | CCc1ccc(NC(=O)[C@H](C)N2CCC(NS(=O)(=O)c3cccs3)CC2)cc1 | 1.15 µM | 4.17 µM | 2.29 µM | 4.79 µM | > 10 µM
11 | CC1([C@@](O)(C#CC[N+]2(C)CCCCC2)c2ccccc2)CCCC1 | 2.19 µM | 1.41 µM | 1.26 µM | > 10 µM | > 10 µM
12 | COc1ccc(-c2c(C)nn3c(N4CCC(C(=O)NC5CC5)CC4)cc(C)nc23)cc1OC | 2.69 µM | > 10 µM | > 10 µM | 1.95 µM | > 10 µM
13 | c1ccc(-c2nc(C[n+]3ccc4c(c3)CCCC4)cs2)cc1 | 1.2 µM | 0.0891 µM | 0.832 µM | > 10 µM | > 10 µM
14 | Cc1ccc(S(=O)(=O)Nc2c(S(=O)(=O)c3ccccc3)c3nc4ccccc4nc3n2CCc2ccccc2)cc1 | 2.14 µM | 6.76 µM | 5.13 µM | 3.63 µM | > 10 µM
15 | COC(=O)c1ccccc1NC(=O)NCCn1nnc2cc(S(=O)(=O)N(C)C)ccc21 | 2.57 µM | > 10 µM | > 10 µM | > 10 µM | > 10 µM
16 | O=C(N[C@@H]1CN(Cc2ccccn2)CCC[C@H]1O)c1ccc(OCc2ccccc2)cc1 | 2.45 µM | 4.07 µM | 2.29 µM | > 10 µM | > 10 µM
17 | COc1cccc(CC(=O)N2CCc3nc(N4CCC(C)CC4)nc(Oc4ccccc4OC)c3C2)c1 | 3.63 µM | 10 µM | 4.9 µM | > 10 µM | > 10 µM
18 | CCOc1cc(C(=O)Nc2ccc3nc4c(c(Nc5ccc(OC)c(OC)c5)c3c2)CCCC4)cc(OCC)c1OCC | 1.38 µM | 3.16 µM | 1.78 µM | 2.45 µM | > 10 µM
19 | COc1ccc(C(=O)CN2C=CCC=C2c2nc(-c3ccc(Cl)cc3)cs2)cc1 | 2.14 µM | 5.13 µM | 3.02 µM | > 10 µM | > 10 µM
20 | COc1ccc(CC(=O)N2N=C(C)C[C@]2(O)c2cccnc2)cc1 | 2.95 µM | > 10 µM | > 10 µM | 1.02 µM | > 10 µM

From ChEMBL document CHEMBL4888484, “Replenishing the malaria drug discovery pipeline: Screening and hit evaluation of the MMV Hit Generation Library 1 (HGL1) against asexual blood stage Plasmodium falciparum ,using a nano luciferase reporter read-out” (2022)
